# Measured values reported in US6955818B1, “Pour-on formulations” (Eli Lilly and Company, priority 1999, dated 2005).
# “Also recorded” adds a separate entry of the source.
# Tests used:
# [1] = system: Merino sheep skin; assay: Pour-on carrier/vehicle sheep skin irritation studies (histological scoring); format: in vivo; conditions: for skin irritancy / histological dermatitis (in words): applied to skin of recently shorn Merino sheep, histology; for Mean skin irritation scores: 1 mL applied to skin of recently shorn Merino sheep, histological score 0-15 (0 no change, 15 very severe damage; normal 2-4, >4 abnormal, >7 very abnormal)
# Procedure: Studies were conducted to investigate and characterise the changes occurring in Merino sheep skin following the application of a range of candidate pour-on formulation components in order to discern safe carriers. Chemicals, emollients, wool grease derivatives and a wide range of formulations were applied (in 1 mL volumes) to each of 18 sites on the back and flanks of 15 recently shorn Merino sheep.
# In the first study, skin samples were collected at necropsy 3½weeks after application. In subsequent studies, skin samples were collected 2 weeks after application. Standard haematoxylin and eosin stained sections were prepared from each piece of treated skin. A histological scoring system was devised to allow comparison of treatments. Each skin was assessed for the degree of hyperkeratosis, acanthosis and inflammatory cell infiltrate of the superficial dermis and given a rating score from 0–15. A score of 0=no change through to a score of 15 for very severe damage. Normal skin scored 2–4, >4 was abnormal and >7 was very abnormal. Treatments yielding a score ? 4.5 were considered safe. […]
# [2] = system: Bovicola ovis; assay: Example 3: spinosad in a variety of carriers as pour-on, lice control on sheep housed indoors; format: in vivo; conditions: carrier containing spinosad, 0.4 mg/kg, 1 mL/5 kg
# Procedure: The aim of this study was to select the most efficacious of a range of eight formulations that were selected on the basis of safety, physical properties, efficacy, cost and theories of dermal insecticide spread.
# Each formulation was prepared to provide spinosad at a dose of 0.4 mg/kg and applied at a rate of 1 mL/5 kg of body weight.
# [3] = Example 12: physical characteristics and freezing points of solvents and solvent combinations; format: physicochemical; conditions: vehicle alone
# Procedure: The physical characteristics of various individual solvents and solvent combinations were determined.
# [4] = Example 5: diffusion of 14C-zeta-cypermethrin on sheep skin in a variety of carriers; format: in vivo; conditions: 1 mL/5 kg on backline of sheep; for spread of zeta-cypermethrin from the backline (in words): carrier with 10 mg/mL 14C-spiked zeta-cypermethrin, wool at 2, 7.5, 15 cm meridians up to day 14
# Procedure: This study compared the amount and rate of diffusion of ^14C-labelled zeta-cypermethrin from the dorsal midline of sheep, when applied in wool grease, in an aqueous formulation and in a range of test carriers.
# Each formulation was applied to the backline of three sheep at 1 mL/5 kg body weight. Wool was collected from three 12×12-mm squares chosen at random, along meridian lines drawn 2, 7.5 and 15 cm down the side of each sheep from the backline. The wool samples were collected at 1, 2, 4, 8, 11 and 14 days after treatment, and each day's samples were pooled. The clipped areas were also swabbed. At day 14 after treatment, the wool at the site of application was collected and back and perirenal fat samples were collected. The quantity of zeta-cypermethrin in each sample was measured by liquid scintillation counting.
# [5] = system: Bovicola ovis (highly synthetic pyrethroid (SP) resistant, Hartley strain of lice); assay: Example 2: wool grease formulations and IPM with zeta-cypermethrin and spinosad, lice control on sheep; format: in vivo; conditions: for efficacy at eight weeks: 2 mL/10 kg
# Text: The purposes of this study were to evaluate wool grease as a formulation to deliver spinosad, to determine the dose required to kill 100% of lice in sheep and to evaluate the suitability of the formulation to deliver zeta-cypermethrin, compared with an isopropyl myristate (IPM) formulation.
# Sheep were heavily infested with the highly synthetic pyrethroid (SP) resistant, Hartley strain of lice. Sheep were shorn, lice counted and sheep allocated to ten groups of six sheep, each divided into three groups of two per treatment. All sheep were treated at the rate of 2 mL of test formulation/10 kg of body weight. Treatments were, respectively: wool grease only; 2 mg/kg deltamethrin and 4 mg/kg alphacypermethrin in commercial formulations; spinosad in wool grease at 0.08 mg/kg, 0.4 mg/kg, 2 mg/kg and 10 mg/kg; zeta-cypermethrin in wool grease at 0.66 mg/kg and 2 mg/kg; and spinosad in IPM at 0.4 mg/kg. Lice numbers were counted weekly for eight weeks.
# [6] = system: Bovicola ovis (Hartley, Claremont, susceptible and slightly resistant strains); assay: Example 6: zeta-cypermethrin in a variety of carriers, lice control on sheep; format: in vivo; conditions: for lice control, susceptible strain (in words): sheep infested with SP-susceptible strain
# Procedure: These studies were devised to determine the efficacy of zeta-cypermethrin (at 2 mg/kg of body weight) in several nonaqueous formulations, and a commercial formulation of deltamethrin, on sheep infested with a severely synthetic pyrethroid (SP) resistant (Hartley) strain and a moderately SP resistant (Claremont) strain of Bovicola ovis. Some additional studies were undertaken with susceptible and slightly resistant lice to determine whether zeta-cypermethrin was able to kill lice under optimum conditions.
# [7] = system: Bovicola ovis; assay: Example 4: therapeutic efficacy and dose titration of spinosad pour-on, sheep housed outdoors; format: in vivo; conditions: 1 mL/5 kg
# Procedure: This study was carried out to select the dose of spinosad required to eradicate sheep body lice when applied as a pour-on in OP/IPM/OSU (70:15:15) containing 5% oleic acid, and to compare the efficacy of spinosad at 0.4 mg/kg in a suspension concentrate (SC) formulation applied as a pour-on with that of the pour-on organic solvent formulation. The spinosad formulations were applied at 1 mL/5 kg and at 0, 0.2, 0.4, 0.8, 1.6 and 3.2 mg/kg to 6 groups of 6 recently shorn sheep that were housed outdoors for 6 weeks.
# [8] = 2 mg/kg (deltamethrin in commercial formulation; zeta-cypermethrin in wool grease)
molecule,measurement,setting,value
CCCCCCCCCCC(CO)CCCCCCCC (centres unmarked) [2-octyl-dodecanol],skin irritancy / histological dermatitis (in words),[1],highly irritant
"CCCCOCCOCCO [DB, diethylene glycol n-butyl ether]",Mean skin irritation scores,[1],7
same,skin irritancy / histological dermatitis (in words),[1],highly irritant
"COC(C)COC(C)CO (centres unmarked) [DPM, dipropylene glycol methyl ether]",Mean skin irritation scores,[1],4
same,skin irritancy / histological dermatitis (in words),[1],mild to moderate dermatitis
CC(=O)CC(C)(C)O [Diacetone alcohol],Mean skin irritation scores,[1],2
same,skin irritancy / histological dermatitis (in words),[1],non-irritant
"CCCCCCCCCCCCCC(=O)OC(C)C [IPM, isopropyl myristate]",Mean skin irritation scores,[1],8
same,skin irritancy / histological dermatitis (in words),[1],severe dermatitis
same,efficacy by the end of the study,[2],about 90%
same,freezing point,[3],−2 to −6 °C
same,spread of zeta-cypermethrin from the backline (in words),[4],greatest spread; also recorded: best spread
same,skin reaction at the site of application,[4]; carrier with 10 mg/mL zeta-cypermethrin,severe scabbing/crusting of the skin
"CCCCCCCCCCCCCCCC(=O)OCCCCCCCC [OP, octyl palmitate]",Mean skin irritation scores,[1],3.3
same,skin irritancy / histological dermatitis (in words),[1],non-irritant
same,Physical Properties (in words),[3],"spreads, lubricant"
"CCCCCCCCCCCCCCCCCC(=O)OCCCCCCCC [OS, octyl stearate]",Physical Properties (in words),[3],"spreads, lubricant"
same,spread of zeta-cypermethrin from the backline (in words),[4],modest spread; also recorded: better spread
CC1(C)C(C=C(Cl)Cl)C1C(=O)OC(C#N)c1cccc(Oc2ccccc2)c1 (centres unmarked) [alphacypermethrin],efficacy at eight weeks,[5]; 4 mg/kg (alphacypermethrin in commercial formulation),9%
CC1(C)[C@H](C(=O)O[C@H](C#N)c2cccc(Oc3ccccc3)c2)[C@@H]1C=C(Br)Br [deltamethrin],efficacy at eight weeks,[5]; [8],8%
CCCCCCCC/C=C\CCCCCCCC(=O)OC [methyl oleate],skin irritancy / histological dermatitis (in words),[1],highly irritant
CC1(C)C(C=C(Cl)Cl)C1C(=O)OC(C#N)c1cccc(Oc2ccccc2)c1 (centres unmarked) [zeta-cypermethrin],efficacy at eight weeks,[5]; 0.66 mg/kg (zeta-cypermethrin in wool grease),0%
same,efficacy at eight weeks,[5]; [8],43%
same,lice control compared with the other treatments (in words),[5]; weekly counts for eight weeks,no significant differences in efficacy at eight weeks; also recorded: better lice control than the commercial pour-ons for the first 5 weeks
same,"lice control, lice with high and moderate resistance to SPs (in words)","[6]; 2 mg/kg zeta-cypermethrin in nonaqueous formulations, commercial deltamethrin, Hartley and Claremont strains",did not give adequate control
same,"lice control, susceptible strain (in words)",[6]; zeta-cypermethrin 2 mg/kg pour-on,did control
same,"lice control, susceptible strain (in words)","[6]; zeta-cypermethrin 2 mg/kg pour-on, listed as Zeta-cypermethrin",eradicated lice
same,"lice control, mildly resistant strain (in words)","[6]; zeta-cypermethrin 2 mg/kg pour-on, sheep infested with mildly resistant strain",excellent control
isocetyl stearate [ICS],skin irritancy / histological dermatitis (in words),[1],mild to moderate dermatitis
propylene glycol dicaprylate dicaprate,skin irritancy / histological dermatitis (in words),[1],highly irritant
spinosad,Efficacy (%) at Day 41,[7]; spinosad 0.2 mg/kg in OP/IPM/OSU (70:15:15) with 5% oleic acid,37%
same,Efficacy (%) at Day 41,[7]; spinosad 0.4 mg/kg in OP/IPM/OSU (70:15:15) with 5% oleic acid,46%
same,Efficacy (%) at Day 41,[7]; spinosad 0.8 mg/kg in OP/IPM/OSU (70:15:15) with 5% oleic acid,78%
same,Efficacy (%) at Day 41,[7]; spinosad 1.6 mg/kg in OP/IPM/OSU (70:15:15) with 5% oleic acid,37%
same,Efficacy (%) at Day 41,[7]; spinosad 3.2 mg/kg in OP/IPM/OSU (70:15:15) with 5% oleic acid,93%
